# Reference: ChEMBL document CHEMBL1201862, “PubChem BioAssay data set” (2004)
#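 Exposure lasted 48 hours, with cells grown in 96-well plates and compounds tested at five concentrations. The concentration for 50% growth inhibition is given as GI50.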 The source made the active and inactive calls. No stated cut-off is given here; in the data, active = GI50 up to about 1.1 µM and inactive = higher.
# Experiments:
# Assay in all cases: inhibition of tumour cell growth, NCI panel, 48 h
# [1] = system: 786-0
# [2] = system: A498
# [3] = system: A549
# [4] = system: ACHN
# [5] = system: CAKI-1
# [6] = system: CCRF-CEM
# [7] = system: COLO 205
# [8] = system: DLD-1
# [9] = system: DMS-114
# [10] = system: DMS-273
# [11] = system: EKVX
# [12] = system: HCC 2998
# [13] = system: HCT-116
# [14] = system: HCT-15
# [15] = system: HL-60
# [16] = system: HOP-18
# [17] = system: HOP-62
# [18] = system: HOP-92
# [19] = system: HT-29
# [20] = system: IGROV-1
# [21] = system: K562
# [22] = system: KM-20L2
# [23] = system: KM12
# [24] = system: LOX IMVI
# [25] = system: LXFL 529
# [26] = system: M14
# [27] = system: M19-MEL
# [28] = system: MOLT-4
# [29] = system: Malme-3M
# [30] = system: NCI-H226
# [31] = system: NCI-H23
# [32] = system: NCI-H460
# [33] = system: NCI-H522
# [34] = system: OVCAR-3
# [35] = system: OVCAR-4
# [36] = system: OVCAR-5
# [37] = system: OVCAR-8
# [38] = system: RPMI-8226
# [39] = system: RXF 631
# [40] = system: SF-268
# [41] = system: SF-295
# [42] = system: SF-539
# [43] = system: SK-MEL-28
# [44] = system: SK-MEL-2
# [45] = system: SK-MEL-5
# [46] = system: SK-OV-3
# [47] = system: SN12C
# [48] = system: SNB-19
# [49] = system: SNB-75
# [50] = system: SNB-78
# [51] = system: SR
# [52] = system: SW-620
# [53] = system: TK-10
# [54] = system: U-251
# [55] = system: UACC-257
# [56] = system: UACC-62
# [57] = system: UO-31
compound,measurement,setting,value
COc1ccc2c(c1)C(=O)C1CC(=O)CCC21 (configuration not stated),GI50,[1],> 100 µM (inactive)
same,GI50,[2],> 100 µM (inactive)
same,GI50,[3],> 100 µM (inactive)
same,GI50,[4],> 100 µM (inactive)
same,GI50,[5],> 100 µM (inactive)
same,GI50,[6],> 100 µM (inactive)
same,GI50,[7],> 100 µM (inactive)
same,GI50,[8],> 100 µM (inactive)
same,GI50,[9],> 100 µM (inactive)
same,GI50,[10],> 100 µM (inactive)
same,GI50,[11],> 100 µM (inactive)
same,GI50,[12],> 100 µM (inactive)
same,GI50,[13],> 100 µM (inactive)
same,GI50,[14],> 100 µM
same,GI50,[15],> 100 µM (inactive)
same,GI50,[16],> 100 µM (inactive)
same,GI50,[17],> 100 µM (inactive)
same,GI50,[18],> 100 µM (inactive)
same,GI50,[19],> 100 µM (inactive)
same,GI50,[20],> 100 µM (inactive)
same,GI50,[21],> 100 µM (inactive)
same,GI50,[22],> 100 µM (inactive)
same,GI50,[23],> 100 µM (inactive)
same,GI50,[24],> 100 µM (inactive)
same,GI50,[25],> 100 µM (inactive)
same,GI50,[26],> 100 µM (inactive)
same,GI50,[27],> 100 µM (inactive)
same,GI50,[28],> 100 µM (inactive)
same,GI50,[29],> 100 µM (inactive)
same,GI50,[30],> 100 µM (inactive)
same,GI50,[31],> 100 µM (inactive)
same,GI50,[32],> 100 µM (inactive)
same,GI50,[33],> 100 µM (inactive)
same,GI50,[34],> 100 µM (inactive)
same,GI50,[35],> 100 µM (inactive)
same,GI50,[36],> 100 µM (inactive)
same,GI50,[37],> 100 µM (inactive)
same,GI50,[38],> 100 µM (inactive)
same,GI50,[39],> 100 µM (inactive)
same,GI50,[40],> 100 µM (inactive)
same,GI50,[41],> 100 µM (inactive)
same,GI50,[42],> 100 µM (inactive)
same,GI50,[43],> 100 µM (inactive)
same,GI50,[44],> 100 µM (inactive)
same,GI50,[45],> 100 µM (inactive)
same,GI50,[46],> 100 µM (inactive)
same,GI50,[47],> 100 µM (inactive)
same,GI50,[48],> 100 µM (inactive)
same,GI50,[49],> 100 µM (inactive)
same,GI50,[50],> 100 µM (inactive)
same,GI50,[51],> 100 µM (inactive)
same,GI50,[52],> 100 µM (inactive)
same,GI50,[53],> 100 µM (inactive)
same,GI50,[54],> 100 µM (inactive)
same,GI50,[55],> 100 µM (inactive)
same,GI50,[56],> 100 µM (inactive)
same,GI50,[57],> 100 µM (inactive)
